Results reported in EP1574201B1, “Composition comprising benzyloxyethanol as preservative” (KAO CORPORATION, priority 2004, dated 2005).

What was measured:
[1] = test system: Alcaligenes faecalis IFO 13111; experiment: MIC by agar plate method; assay type: cell-based; conditions: SCD agar medium
Procedure: (§1) The minimum inhibitory concentration (MIC) of benzyloxyethanol against bacteria and fungi was determined by means of the agar plate method. There were employed the following microbial strains: Staphylococcus aureus IFO 13276, Escherichia coli IFO 3972, Pseudomonas aeruginosa IFO 13275, and Alcaligenes faecalis IFO 13111, and the following fungal strains: Penicillium citrinum IFO 6352 , Cladosporium cladosporoides IFO 6348 and Aspergillus niger IFO 6341. The media used in the test […] agar medium (product of Wako Pure Chemical Industries, Ltd.) for the bacteria, and GP agar medium (product of Wako Pure Chemical Industries, Ltd.) for the fungi, to which various concentration of benzyloxyethanol was added.

[2] = test system: Aspergillus niger IFO 6341; experiment: MIC by agar plate method; assay type: cell-based; conditions: GP agar medium
Procedure: as §1

[3] = test system: Cladosporium cladosporoides IFO 6348; experiment: MIC by agar plate method; assay type: cell-based; conditions: GP agar medium
Procedure: as §1

[4] = test system: Escherichia coli IFO 3972; experiment: MIC by agar plate method; assay type: cell-based; conditions: SCD agar medium
Procedure: as §1

[5] = test system: Penicillium citrinum IFO 6352; experiment: MIC by agar plate method; assay type: cell-based; conditions: GP agar medium
Procedure: as §1

[6] = test system: Pseudomonas aeruginosa IFO 13275; experiment: MIC by agar plate method; assay type: cell-based; conditions: SCD agar medium
Procedure: as §1

[7] = test system: Staphylococcus aureus IFO 13276; experiment: MIC by agar plate method; assay type: cell-based; conditions: SCD agar medium
Procedure: as §1

[8] = test system: Staphylococcus aureus IFO 13276, Escherichia coli IFO 3972, and Pseudomonas aeruginosa IFO 13275; experiment: Preservative efficacy test (reduction in count of viable bacteria); assay type: cell-based; conditions: BOE and methyl paraben in combination versus each alone
Procedure: Preservative efficacy test was performed at 30°C by use of the bacteria written below and a sample (50 g) having a composition shown in the below-described Table 2, and the preservative efficacy was evaluated on the reduction in count of viable bacteria. The following test microorganisms are challenged: Staphylococcus aureus IFO 13276, Escherichia coli IFO 3972, and Pseudomonas aeruginosa IFO 13275.

[9] = guinea pig, in vivo
Procedure: Guinea pig maximization test was performed. Specifically, groups of guinea pigs, each group consisting of 10 guinea pigs, were employed, and each animal was given interedermal injection of.0.3(W/V)% benzyloxyethanol and 30(W/V)% benzyloxyethanol was applied occlusive patch. Subsequently, challenge was performed at a concentration of benzyloxyethanol at which no irritation occurs.

Row | Compound | MIC (%) [1] [%] | MIC (%) [2] [%] | MIC (%) [3] [%] | MIC (%) [4] [%] | MIC (%) [5] [%] | MIC (%) [6] [%] | MIC (%) [7] [%] | available amounts for the required reduction were reduced by [8] [%] | positive rate [9] [%]
1 | OCCOCc1ccccc1 [benzyloxyethanol] | 0.8 | 0.8 | 0.2 | 0.8 | 0.8 | 1.0 | 1.4 | 40 | 0
2 | COC(=O)c1ccc(O)cc1 [methyl paraben, reference compound] | – | – | – | – | – | – | – | 75 | –
